The source made the active and inactive calls. No cut-off for these calls is given here.
Experiments:
HepG2 [1] = assay: Induction of ROS generation in human HepG2 cells at 25 uM after 15 to 30 mins using H2DCFH dye by confocal microscopy in presence of PEG-catalase; type: functional, cell-based
HepG2 [2] = assay: Induction of apoptosis in human HepG2 cells assessed as activation of caspase-3/8/9 after 24 hrs by Western blotting; type: functional, cell-based
HepG2 [3] = assay: Cytotoxicity against human doxorubicin-resistant HepG2 cells expressing p-gp assessed as combination index after 24 hrs by MTT assay in presence of doxorubicin; type: functional
HepG2 [4] = assay: Induction of apoptosis in human HepG2 cells assessed as increase in PARP cleavage after 24 hrs by Western blotting; type: functional, cell-based
HepG2 [5] = assay: Induction of ROS generation in human doxorubicin-resistant HepG2 cells expressing p-gp at 25 uM after 15 mins using H2DCFH dye by confocal microscopy; type: functional, cell-based
HepG2 [6] = assay: Induction of oxidative stress in human doxorubicin-resistant HepG2 cells expressing p-gp assessed as decrease of GSH level per gram of protein at 6.25 to 25 uM after 24 hrs using DTNB by enzymatic kinetic method relative to control; type: functional, cell-based
HepG2 [7] = assay: Increase of SAPK/JNK phosphorylation in human HepG2 cells at 1.56 to 25 uM by Western blot analysis in presence of NAC; type: cell-based
HepG2 [8] = assay: Induction of necrosis in human HepG2 cells assessed as LDH leakage at 25 uM after 24 hrs; type: functional, cell-based
[9] = Cytotoxicity against human PLC/PRF/5 cells after 24 hrs by MTT assay; type: functional, cell-based; conditions: PLC-PRF-5, 24 h
HepG2 [10] = assay: Induction of necrosis in human doxorubicin-resistant HepG2 cells expressing p-gp assessed as LDH leakage at >50 uM after 24 hrs; type: functional, cell-based
HepG2 [11] = assay: Induction of ROS generation in human HepG2 cells after 15 to 30 mins using CM-H2DCFDA by flow cytometry; type: functional, cell-based
HepG2 [12] = assay: Effect on nonphosphorylated SAPK/JNK level in human HepG2 cells at 25 uM by Western blot analysis; type: ADME, cell-based; conditions: hepg2, 25 µM
[13] = target: Mitogen-activated protein kinase; ERK1/ERK2 (Homo sapiens) (UniProt P27361+P28482); assay: Inhibition of ERK1/2 phosphorylation in human HepG2 cells at 1.56 to 25 uM by Western blot analysis in presence of NAC; type: cell-based
Chain of Mitogen-activated protein kinase; ERK1/ERK2 (Homo sapiens) (P27361 whole entry, looked up): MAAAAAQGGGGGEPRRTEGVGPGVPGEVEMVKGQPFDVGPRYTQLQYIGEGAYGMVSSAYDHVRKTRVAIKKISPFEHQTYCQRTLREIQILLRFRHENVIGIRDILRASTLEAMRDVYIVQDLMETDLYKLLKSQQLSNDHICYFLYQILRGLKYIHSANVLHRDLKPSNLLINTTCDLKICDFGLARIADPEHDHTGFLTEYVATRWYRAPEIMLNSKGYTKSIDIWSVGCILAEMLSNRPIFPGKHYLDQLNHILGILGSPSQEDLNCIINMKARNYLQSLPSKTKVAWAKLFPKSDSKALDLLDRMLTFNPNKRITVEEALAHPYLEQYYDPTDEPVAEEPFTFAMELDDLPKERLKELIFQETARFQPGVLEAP
Chain of Mitogen-activated protein kinase; ERK1/ERK2 (Homo sapiens) (P28482 whole entry, looked up): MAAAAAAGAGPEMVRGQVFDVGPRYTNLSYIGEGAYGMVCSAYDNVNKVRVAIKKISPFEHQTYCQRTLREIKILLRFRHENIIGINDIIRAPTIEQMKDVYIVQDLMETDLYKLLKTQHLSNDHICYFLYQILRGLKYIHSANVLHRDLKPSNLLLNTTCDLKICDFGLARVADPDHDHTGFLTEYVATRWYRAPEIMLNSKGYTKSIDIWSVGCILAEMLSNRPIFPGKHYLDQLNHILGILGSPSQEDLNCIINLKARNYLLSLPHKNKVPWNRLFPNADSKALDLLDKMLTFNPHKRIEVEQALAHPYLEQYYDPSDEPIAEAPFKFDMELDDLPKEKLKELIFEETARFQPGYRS

HepG2 [14] = assay: Induction of necrosis in human HepG2 cells assessed as LDH leakage at >50 uM after 24 hrs; type: functional, cell-based
HepG2 [15] = assay: Competitive inhibition of p-glycoprotein in doxorubicin-resistant human HepG2 cells assessed as reduction of doxorubicin efflux after 1 hr by primary Lineweaver-Burk plot analysis; type: cell-based
HepG2 [16] = assay: Effect on nonphosphorylated SAPK/JNK level in human doxorubicin-resistant HepG2 cells expressing p-gp at 25 uM by Western blot analysis; type: ADME, cell-based; conditions: hepg2, 25 µM
HepG2 [17] = assay: Cytotoxicity against human HepG2 cells after 24 hrs by MTT assay in presence of doxorubicin; type: functional, cell-based; conditions: HepG2, 24 h
[18] = Cytotoxicity against human Hep3B cells after 24 hrs by MTT assay; type: functional, cell-based, Hep 3B2
HepG2 [19] = assay: Induction of apoptosis in human HepG2 cells assessed as activation of caspase-3/8/9 at 12.5 after 24 hrs by Western blotting in presence of Z-IETD-FMK; type: functional, cell-based
HepG2 [20] = assay: Increase of SAPK/JNK phosphorylation in human doxorubicin-resistant HepG2 cells expressing p-gp at 1.56 to 25 uM by Western blot analysis in presence of NAC; type: cell-based
HepG2 [21] = assay: Effect on nonphosphorylated p38 MAPK level in human doxorubicin-resistant HepG2 cells expressing p-gp at 25 uM by Western blot analysis; type: ADME, cell-based; conditions: hepg2, 25 µM
HepG2 [22] = assay: Induction of oxidative stress in human doxorubicin-resistant HepG2 cells expressing p-gp assessed as decrease of GSH level per gram of protein at 1.56 to 3.12 uM after 24 hrs using DTNB by enzymatic kinetic method relative to control; type: functional, cell-based
HepG2 [23] = assay: Induction of oxidative stress in human doxorubicin-resistant HepG2 cells expressing p-gp assessed as increase of GSH/GSSG ratio at 1.56 to 3.12 uM after 24 hrs using DTNB by enzymatic kinetic method; type: functional, cell-based
HepG2 [24] = assay: Induction of ROS generation in human HepG2 cells at 25 uM after 15 to 30 mins using H2DCFH dye by confocal microscopy; type: functional, cell-based
HepG2 [25] = assay: Induction of apoptosis in human doxorubicin-resistant HepG2 cells expressing p-gp assessed as activation of caspase-3/8/9 after 24 hrs by Western blotting; type: functional, cell-based
HepG2 [26] = assay: Induction of apoptosis in human doxorubicin-resistant HepG2 cells expressing p-gp assessed as activation of caspase-3/8/9 at 12.5 after 24 hrs by Western blotting in presence of trolox; type: functional, cell-based
HepG2 [27] = assay: Increase of SAPK/JNK phosphorylation in human HepG2 cells at 1.56 to 25 uM by Western blot analysis in presence of SB203580; type: cell-based
HepG2 [28] = assay: Induction of apoptosis in human HepG2 cells assessed as activation of caspase-3/8/9 at 12.5 after 24 hrs by Western blotting in presence of Z-LEHD-FMK; type: functional, cell-based
[29] = target: MAP kinase p38 (Homo sapiens) (UniProt O15264+Q15759+Q16539+P53778); assay: Inhibition of p38 MAPK phosphorylation in human doxorubicin-resistant HepG2 cells expressing p-gp at 1.56 to 25 uM by Western blot analysis; type: cell-based
HepG2 [30] = assay: Increase of SAPK/JNK phosphorylation in human doxorubicin-resistant HepG2 cells expressing p-gp at 1.56 to 25 uM by Western blot analysis in presence of SB203580; type: cell-based
HepG2 [31] = assay: Induction of apoptosis in human doxorubicin-resistant HepG2 cells expressing p-gp assessed as activation of caspase-3/8/9 at 12.5 after 24 hrs by Western blotting in presence of Z-VAD-FMK; type: functional, cell-based

inhibition [13]: inactive | inhibition [29]: Active
Structure (SMILES): CC(C)C1=Cc2ccc3c(c2C(=O)C1=O)CCCC3(C)C [MILTIRONE]
Activity (HepG2 [1]): inactive | Activity (HepG2 [2]): Active | CI (HepG2 [3]): 1.56 | Activity (HepG2 [4]): Active | Activity (HepG2 [5]): Active | Activity (HepG2 [6]): Active | inhibition (HepG2 [7]): inactive | Activity (HepG2 [8]): inactive | EC50 [9]: 27.1 µM | Activity (HepG2 [10]): Active | Activity (HepG2 [11]): Dose-dependent effect | Activity (HepG2 [12]): Non-toxic | Activity (HepG2 [14]): Active | inhibition (HepG2 [15]): Active | Activity (HepG2 [16]): Non-toxic | EC50 (HepG2 [17]): 30.9 µM | EC50 [18]: 14.8 µM | Activity (HepG2 [19]): inactive | inhibition (HepG2 [20]): inactive | Activity (HepG2 [21]): Non-toxic | Activity (HepG2 [22]): inactive | Activity (HepG2 [23]): inactive | Activity (HepG2 [24]): Active | Activity (HepG2 [25]): Active | Activity (HepG2 [26]): inactive | Activity (HepG2 [27]): inactive | Activity (HepG2 [28]): inactive | Activity (HepG2 [30]): Active | Activity (HepG2 [31]): inactive

From ChEMBL document CHEMBL3608289, “Miltirone Is a Dual Inhibitor of P-Glycoprotein and Cell Growth in Doxorubicin-Resistant HepG2 Cells” (J Nat Prod, 2015)
